Tests used:
[1] = system: HCV Genotype 1 (either Genotype 1a or Genotype 1b); assay: Rising multiple dose study in non-responder patients, HCV-RNA viral load by RT-PCR; type: in vivo
Protocol: A rising multiple dose study was conducted in four groups of non-responder patients in which 100, 200 and 400 mg BID and 400 mg TID dosages of the compound of Formula la were administered for 14 days. […] The methodology used was a randomized, placebo controlled, multi-center, third-party-blind, multiple-dose study of the compound of Formula Ia in non-responders conducted in accordance with Good Clinical Practices. For the purpose of this study, it should be noted that the non-responders also were patients in whom one or more symptoms were established in association with, or the possibility of one or more symptoms was suspected of in association with, HCV Genotype 1 (either Genotype 1a or Genotype 1b) specifically. In order to measure viral load, the Hepatitis C virus RNA (HCV-RNA) is measured by extracting total RNA from plasma or serum samples and using an in-house real-time reverse transcriptase polymerase chain reaction (RT-PCR) assay with a lower limit of detection of 29 International Units (IU)/mL. The amplification target is the 5′-Untranslated region (UTR) of the HCV genome. An internal RNA control is added to each sample to assess the efficiency of RNA extraction. Appropriate negative and positive controls are added in each assay run. The assay method has been validated against the WHO International Standard for HCV. The HCV-RNA amount in a sample is reported as copies of HCV-RNA per mL of sample and also as HCV IU per mL of sample. When <100 copies of HCV-RNA per mL are found, the HCV-RNA is considered to be undetectible.

[2] = system: HCV Genotype 1 (1a or 1b); assay: Parallel group, rising multiple-dose, 3 period crossover study in non-responders, HCV-RNA viral load; type: in vivo, patients
Protocol: In order to measure viral load, the Hepatitis C virus RNA (HCV-RNA) is measured by extracting total RNA from plasma or serum samples and using an in-house real-time reverse transcriptase polymerase chain reaction (RT-PCR) assay with a lower limit of detection of 29 International Units (IU)/mL. The amplification target is the 5′-Untranslated region (UTR) of the HCV genome. An internal RNA control is added to each sample to assess the efficiency of RNA extraction. Appropriate negative and positive controls are added in each assay run. The assay method has been validated against the WHO International Standard for HCV. The HCV-RNA amount in a sample is reported as copies of HCV-RNA per mL of sample and also as HCV IU per mL of sample. When <100 copies of HCV-RNA per mL are found, the HCV-RNA is considered to be undetectible.
A second study was commenced in patients having detectible levels ([…] copies per mL tissue or fluid) HCV Genotype 1 (1a or 1b) and whom were already established as non-responders from previous trials.
The methodology of the study was a parallel group, rising, multiple-dose, 3 period crossover (within each group) study in which subjects are treated with pegylated interferon (PEG-Intron, commercially available from Schering-Plough), 1.5 mcg/kg of the compound of Formula Ia or combination treatment of PEG-Intron 1.5 mcg/kg and the compound of Formula Ia. The doses of the compound of Formula Ia used for each group were 200 mg TID or 400 mg TID.
Twelve patients were treated in a random sequence with each 200 mg TID dose of the compound of Formula Ia alone for 7 days, PEG-Intron once weekly for two doses, and a combination treatment of 200 mg TID of the compound of Formula la plus PEG-Intron for 14 days. Preliminary results from the 200 mg TID dose group are illustrated in FIG. 2.

In the case of CC(C)(C)NC(=O)N[C@H](C(=O)N1C[C@H]2[C@@H]([C@H]1C(=O)NC(CC1CCC1)C(=O)C(N)=O)C2(C)C)C(C)(C)C (mixture of isomers) [Formula Ia], the “average maximum reduction of viral load from baseline” value ([1]; 400 mg TID for 14 days, monotherapy, 10 non-responder patients) is reported as 2 logs, the “effect of monotherapy on viral load” value ([1]; 100, 200 and 400 mg BID and 400 mg TID for 14 days) is reported as “reduced viral load in all patients” and the “HCV-RNA viral load following discontinuation of treatment” value ([1]; after the 14-day treatment, all patients) is reported as “returned to baseline levels in all patients”. The “mean maximum HCV-RNA reduction” value ([2]; 200 mg TID alone for 7 days, preliminary results) was 0.85 logs, the “average maximum reduction in HCV-RNA viral load” value ([2]; 200 mg TID in combination with PEG-Intron 1.5 mcg/kg weekly, two weeks of treatment) was 2.4 logs and the “course of viral load in the second week” value ([2]; 200 mg TID in combination with PEG-Intron, 14 days) was “viral load continued to decline in the second week”. The “HCV-RNA viral load level of one patient at the end of therapy (undetectible)” value ([2]; 200 mg TID in combination with PEG-Intron, end of 14 days, one patient (decrease by 4.5 logs)) was < 100 copies per mL of tissue or fluid.

Source: patent US20070004635A1, “Method of treating interferon non-responders using HCV protease inhibitor” (Schering Corporation, priority 2005, published 2007)
